# Measurements as given in ChEMBL document CHEMBL4002621, “Novel 12N-substituted matrinanes as potential anti-coxsackievirus agents” (Bioorg Med Chem Lett, 2017).
# Test system: not listed separately
# Test: Selectivity index, ratio of TC50 for African green monkey Vero cells to IC50 for Coxsackievirus B2 (strain Ohio-1) infected in African green monkey Vero cells
# Assay type: toxicity
# Details: read-out: Selectivity Index
row,SMILES,selectivity ratio
1,CCCC[C@@H]1[C@H]2CCCN3CCC[C@@H](CN1C(=O)c1cc(OC)c(OC)c(OC)c1)[C@@H]23,33.7
2,CCCC[C@@H]1[C@H]2CCCN3CCC[C@@H](CN1S(=O)(=O)c1cccnc1)[C@@H]23,> 59.7

# Test system: not listed separately
# Test: Acute toxicity in po dosed Kunming mouse assessed as effect on body weight and survival administered as single dose measured up to 7 days
# Assay type: organism-based
# Details: in vivo
row,SMILES,LD50 at 168 h
1,CCCC[C@@H]1[C@H]2CCCN3CCC[C@@H](CN1C(=O)c1cc(OC)c(OC)c(OC)c1)[C@@H]23,327 mg/kg
2,CCCC[C@@H]1[C@H]2CCCN3CCC[C@@H](CN1S(=O)(=O)c1cccnc1)[C@@H]23,330 mg/kg

# Test system: not listed separately
# Test: Antiviral activity against Coxsackievirus B2 (strain Ohio-1) infected in African green monkey Vero cells assessed as reduction in viral-induced cytopathic effect by Reed and Muench analysis
# Assay type: functional
# Details: Enterovirus B
row,SMILES,IC50
1,CCCC[C@@H]1[C@H]2CCCN3CCC[C@@H](CN1C(=O)c1cc(OC)c(OC)c(OC)c1)[C@@H]23,3.43 µM
2,NC(=O)c1ncn([C@@H]2O[C@H](CO)[C@@H](O)[C@H]2O)n1 [RIBAVIRIN],> 40900 µM
3,CCCC[C@@H]1[C@H]2CCCN3CCC[C@@H](CN1S(=O)(=O)c1cccnc1)[C@@H]23,3.35 µM

# Test system: not listed separately
# Test: Cytotoxicity against African green monkey Vero cells assessed as growth inhibition after 48 hrs
# Assay type: cell-based
# Details: chlorocebus sabaeus, read-out: TC50
row,SMILES,CC50 at 48 h
1,CCCC[C@@H]1[C@H]2CCCN3CCC[C@@H](CN1S(=O)(=O)c1ccsc1C(=O)O)[C@@H]23,> 200 µM
2,CCCC[C@@H]1[C@H]2CCCN3CCC[C@@H](CN1S(=O)(=O)c1cccs1)[C@@H]23,251 µM
3,CCCC[C@@H]1[C@H]2CCCN3CCC[C@@H](CN1S(=O)(=O)c1sc(NC(C)=O)nc1C)[C@@H]23,96.2 µM
4,CCCC[C@@H]1[C@H]2CCCN3CCC[C@@H](CN1C(=O)CCC(=O)OC)[C@@H]23,> 200 µM
5,CCCC[C@@H]1[C@H]2CCCN3CCC[C@@H](CN1S(=O)(=O)c1ccc(C(N)=O)cc1)[C@@H]23,331 µM
6,CCCC[C@@H]1[C@H]2CCCN3CCC[C@@H](CN1S(=O)(=O)c1sc(N)nc1C)[C@@H]23,233 µM
7,CCCC[C@@H]1[C@H]2CCCN3CCC[C@@H](CN1C(=O)c1ccc(OC)cc1)[C@@H]23,116 µM
8,CCCC[C@@H]1[C@H]2CCCN3CCC[C@@H](CN1C(=O)c1cc(OC)c(OC)c(OC)c1)[C@@H]23,115 to 200 µM
9,CCCC[C@@H]1[C@H]2CCCN3CCC[C@@H](CN1C(=O)CCC)[C@@H]23,200 µM
10,CCCC[C@@H]1[C@H]2CCCN3CCC[C@@H](CN1S(=O)(=O)c1ccc4oc(=O)ccc4c1)[C@@H]23,180 µM
11,NC(=O)c1ncn([C@@H]2O[C@H](CO)[C@@H](O)[C@H]2O)n1 [RIBAVIRIN],6360 to 40900 µM
12,CCCC[C@@H]1[C@H]2CCCN3CCC[C@@H](CN1S(=O)(=O)c1cccnc1)[C@@H]23,200 to 592 µM

# Test system: Coxsackievirus B5
# Test: Antiviral activity against Coxsackievirus B5 Faulkner infected in African green monkey Vero cells assessed as reduction in viral-induced cytopathic effect by Reed and Muench analysis
# Assay type: functional
# Details: Enterovirus B
row,SMILES,IC50
1,CCCC[C@@H]1[C@H]2CCCN3CCC[C@@H](CN1C(=O)c1cc(OC)c(OC)c(OC)c1)[C@@H]23,7.41 µM
2,CCCC[C@@H]1[C@H]2CCCN3CCC[C@@H](CN1S(=O)(=O)c1cccnc1)[C@@H]23,3.43 µM

# Test system: Coxsackievirus B1
# Test: Antiviral activity against Coxsackievirus B1 Conn-5 infected in African green monkey Vero cells assessed as reduction in viral-induced cytopathic effect by Reed and Muench analysis
# Assay type: functional
# Details: Enterovirus B, Conn-5, Vero
row,SMILES,IC50
1,CCCC[C@@H]1[C@H]2CCCN3CCC[C@@H](CN1C(=O)c1cc(OC)c(OC)c(OC)c1)[C@@H]23,4.94 µM
2,CCCC[C@@H]1[C@H]2CCCN3CCC[C@@H](CN1S(=O)(=O)c1cccnc1)[C@@H]23,2.02 µM

# Test system: not listed separately
# Test: Selectivity index, ratio of TC50 for African green monkey Vero cells to IC50 for Coxsackievirus B5 Faulkner infected in African green monkey Vero cells
# Assay type: toxicity
# Details: read-out: Selectivity Index
row,SMILES,selectivity ratio
1,CCCC[C@@H]1[C@H]2CCCN3CCC[C@@H](CN1C(=O)c1cc(OC)c(OC)c(OC)c1)[C@@H]23,15.6
2,NC(=O)c1ncn([C@@H]2O[C@H](CO)[C@@H](O)[C@H]2O)n1 [RIBAVIRIN],> 12.3
3,CCCC[C@@H]1[C@H]2CCCN3CCC[C@@H](CN1S(=O)(=O)c1cccnc1)[C@@H]23,> 58.3

# Test system: not listed separately
# Test: Selectivity index, ratio of TC50 for African green monkey Vero cells to IC50 for Coxsackievirus A16 shzh05-1 infected in African green monkey Vero cells
# Assay type: toxicity
# Details: read-out: Selectivity Index
row,SMILES,selectivity ratio
1,CCCC[C@@H]1[C@H]2CCCN3CCC[C@@H](CN1C(=O)c1cc(OC)c(OC)c(OC)c1)[C@@H]23,18.7
2,NC(=O)c1ncn([C@@H]2O[C@H](CO)[C@@H](O)[C@H]2O)n1 [RIBAVIRIN],> 4.3
3,CCCC[C@@H]1[C@H]2CCCN3CCC[C@@H](CN1S(=O)(=O)c1cccnc1)[C@@H]23,> 27

# Test system: not listed separately
# Test: Antiviral activity against Coxsackievirus B6 (strain Schmitt) infected in African green monkey Vero cells assessed as reduction in viral-induced cytopathic effect by Reed and Muench analysis
# Assay type: functional
# Details: Enterovirus B
row,SMILES,IC50
1,CCCC[C@@H]1[C@H]2CCCN3CCC[C@@H](CN1C(=O)c1cc(OC)c(OC)c(OC)c1)[C@@H]23,3.43 µM
2,CCCC[C@@H]1[C@H]2CCCN3CCC[C@@H](CN1S(=O)(=O)c1cccnc1)[C@@H]23,3.43 µM

# Test system: Coxsackievirus B3
# Test: Antiviral activity against Coxsackievirus B3 (strain Nancy) infected in African green monkey Vero cells assessed as reduction in viral-induced cytopathic effect by Reed and Muench analysis
# Assay type: functional
# Details: Enterovirus B
row,SMILES,IC50
1,CCCC[C@@H]1[C@H]2CCCN3CCC[C@@H](CN1S(=O)(=O)c1ccsc1C(=O)O)[C@@H]23,15 µM
2,CCCC[C@@H]1[C@H]2CCCN3CCC[C@@H](CN1S(=O)(=O)c1cccs1)[C@@H]23,19.4 µM
3,CCCC[C@@H]1[C@H]2CCCN3CCC[C@@H](CN1S(=O)(=O)c1sc(NC(C)=O)nc1C)[C@@H]23,2.06 µM
4,CCCC[C@@H]1[C@H]2CCCN3CCC[C@@H](CN1C(=O)CCC(=O)OC)[C@@H]23,11.1 µM
5,CCCC[C@@H]1[C@H]2CCCN3CCC[C@@H](CN1S(=O)(=O)c1ccc(C(N)=O)cc1)[C@@H]23,124 µM
6,CCCC[C@@H]1[C@H]2CCCN3CCC[C@@H](CN1S(=O)(=O)c1sc(N)nc1C)[C@@H]23,> 53.8 µM
7,CCCC[C@@H]1[C@H]2CCCN3CCC[C@@H](CN1C(=O)c1ccc(OC)cc1)[C@@H]23,6.17 µM
8,CCCC[C@@H]1[C@H]2CCCN3CCC[C@@H](CN1C(=O)c1cc(OC)c(OC)c(OC)c1)[C@@H]23,3.95 µM
9,CCCC[C@@H]1[C@H]2CCCN3CCC[C@@H](CN1C(=O)CCC)[C@@H]23,32 µM
10,CCCC[C@@H]1[C@H]2CCCN3CCC[C@@H](CN1S(=O)(=O)c1ccc4oc(=O)ccc4c1)[C@@H]23,3.21 µM
11,NC(=O)c1ncn([C@@H]2O[C@H](CO)[C@@H](O)[C@H]2O)n1 [RIBAVIRIN],379 µM
12,CCCC[C@@H]1[C@H]2CCCN3CCC[C@@H](CN1S(=O)(=O)c1cccnc1)[C@@H]23,3.99 µM

# Test system: not listed separately
# Test: Selectivity index, ratio of TC50 for African green monkey Vero cells to IC50 for Coxsackievirus B6 (strain Schmitt) infected in African green monkey Vero cells
# Assay type: toxicity
# Details: read-out: Selectivity Index
row,SMILES,selectivity ratio
1,CCCC[C@@H]1[C@H]2CCCN3CCC[C@@H](CN1C(=O)c1cc(OC)c(OC)c(OC)c1)[C@@H]23,33.7
2,NC(=O)c1ncn([C@@H]2O[C@H](CO)[C@@H](O)[C@H]2O)n1 [RIBAVIRIN],> 19.6
3,CCCC[C@@H]1[C@H]2CCCN3CCC[C@@H](CN1S(=O)(=O)c1cccnc1)[C@@H]23,> 58.1

# Test system: Coxsackievirus A16
# Test: Antiviral activity against Coxsackievirus A16 shzh05-1 infected in African green monkey Vero cells assessed as reduction in viral-induced cytopathic effect by Reed and Muench analysis
# Assay type: functional
# Details: Enterovirus A, shzh05-1, Vero
row,SMILES,IC50
1,CCCC[C@@H]1[C@H]2CCCN3CCC[C@@H](CN1C(=O)c1cc(OC)c(OC)c(OC)c1)[C@@H]23,6.17 µM
2,NC(=O)c1ncn([C@@H]2O[C@H](CO)[C@@H](O)[C@H]2O)n1 [RIBAVIRIN],9620 µM
3,CCCC[C@@H]1[C@H]2CCCN3CCC[C@@H](CN1S(=O)(=O)c1cccnc1)[C@@H]23,7.41 µM

# Test system: Coxsackievirus B4
# Test: Antiviral activity against Coxsackievirus B4 J.V.B infected in African green monkey Vero cells assessed as reduction in viral-induced cytopathic effect by Reed and Muench analysis
# Assay type: functional
# Details: Enterovirus B
row,SMILES,IC50
1,CCCC[C@@H]1[C@H]2CCCN3CCC[C@@H](CN1C(=O)c1cc(OC)c(OC)c(OC)c1)[C@@H]23,4.94 µM
2,NC(=O)c1ncn([C@@H]2O[C@H](CO)[C@@H](O)[C@H]2O)n1 [RIBAVIRIN],> 40900 µM
3,CCCC[C@@H]1[C@H]2CCCN3CCC[C@@H](CN1S(=O)(=O)c1cccnc1)[C@@H]23,3.43 µM

# Test system: not listed separately
# Test: Selectivity index, ratio of TC50 for African green monkey Vero cells to IC50 for Coxsackievirus B3 (strain Nancy) infected in African green monkey Vero cells
# Assay type: toxicity
# Details: read-out: Selectivity Index
row,SMILES,selectivity ratio
1,CCCC[C@@H]1[C@H]2CCCN3CCC[C@@H](CN1S(=O)(=O)c1ccsc1C(=O)O)[C@@H]23,> 13.3
2,CCCC[C@@H]1[C@H]2CCCN3CCC[C@@H](CN1S(=O)(=O)c1cccs1)[C@@H]23,13
3,CCCC[C@@H]1[C@H]2CCCN3CCC[C@@H](CN1S(=O)(=O)c1sc(NC(C)=O)nc1C)[C@@H]23,46.7
4,CCCC[C@@H]1[C@H]2CCCN3CCC[C@@H](CN1C(=O)CCC(=O)OC)[C@@H]23,> 18.1
5,CCCC[C@@H]1[C@H]2CCCN3CCC[C@@H](CN1S(=O)(=O)c1ccc(C(N)=O)cc1)[C@@H]23,2.68
6,CCCC[C@@H]1[C@H]2CCCN3CCC[C@@H](CN1C(=O)c1ccc(OC)cc1)[C@@H]23,18.7
7,CCCC[C@@H]1[C@H]2CCCN3CCC[C@@H](CN1C(=O)c1cc(OC)c(OC)c(OC)c1)[C@@H]23,> 50.6
8,CCCC[C@@H]1[C@H]2CCCN3CCC[C@@H](CN1C(=O)CCC)[C@@H]23,6.24
9,CCCC[C@@H]1[C@H]2CCCN3CCC[C@@H](CN1S(=O)(=O)c1ccc4oc(=O)ccc4c1)[C@@H]23,56
10,NC(=O)c1ncn([C@@H]2O[C@H](CO)[C@@H](O)[C@H]2O)n1 [RIBAVIRIN],16.8
11,CCCC[C@@H]1[C@H]2CCCN3CCC[C@@H](CN1S(=O)(=O)c1cccnc1)[C@@H]23,> 148

# Test system: not listed separately
# Test: Selectivity index, ratio of TC50 for African green monkey Vero cells to IC50 for Coxsackievirus B1 Conn-5 infected in African green monkey Vero cells
# Assay type: toxicity
# Details: read-out: Selectivity Index
row,SMILES,selectivity ratio
1,CCCC[C@@H]1[C@H]2CCCN3CCC[C@@H](CN1C(=O)c1cc(OC)c(OC)c(OC)c1)[C@@H]23,23.4
2,NC(=O)c1ncn([C@@H]2O[C@H](CO)[C@@H](O)[C@H]2O)n1 [RIBAVIRIN],> 17.2
3,CCCC[C@@H]1[C@H]2CCCN3CCC[C@@H](CN1S(=O)(=O)c1cccnc1)[C@@H]23,> 99

# Test system: not listed separately
# Test: Selectivity index, ratio of TC50 for African green monkey Vero cells to IC50 for Coxsackievirus B4 J.V.B infected in African green monkey Vero cells
# Assay type: toxicity
# Details: read-out: Selectivity Index
row,SMILES,selectivity ratio
1,CCCC[C@@H]1[C@H]2CCCN3CCC[C@@H](CN1C(=O)c1cc(OC)c(OC)c(OC)c1)[C@@H]23,23.4
2,CCCC[C@@H]1[C@H]2CCCN3CCC[C@@H](CN1S(=O)(=O)c1cccnc1)[C@@H]23,> 58.3
